These results are taken from patent US11439707B2, “Hypocrellin derivative substituted both in a peri-position and in 2-position by amino, preparation method, and application thereof” (priority 2017, dated 2022).

Data set [1] in a line: singlet oxygen efficiency test, reference rose bengal. Type of data set: physicochemical.
Data set [2] in a line: absorption spectrum (maximum absorption wavelength, molar extinction coefficient). The data set is classed as physicochemical.

On to `COCCOCCOCCOCCOCCOCCOCCC(=O)OCC1(Nc2c(O)c3c(=O)cc(OC)c4c5c(OC)cc(=O)c6c(NC7(COC(=O)CCOCCOCCOCCOCCOCCOCCOC)CC7)c(OC)c7c(c(c2C=C(C)C7C(C)=O)c34)c65)CC1` (stereo not drawn) [HB-35b-PEG6], for which, in data set [1], the singlet oxygen yield was 32%. In addition, in data set [2], the maximum absorption wavelength was found to be 624 nm and the molar extinction coefficient is recorded as 30,500 M^−1cm^−1.

Consider `COC(=O)C(CO)Nc1c2c3c4c(c(OC)c(=O)c5c(O)cc(OC)c(c6c(OC)cc(NC(CO)C(=O)OC)c(c1=O)c63)c54)C(C(C)=O)C(C)=C2` (stereo not drawn) [HB-24c], for which the singlet oxygen yield in data set [1] is recorded as 22%. For the same molecule, in data set [2], the maximum absorption wavelength came to 622 nm and the molar extinction coefficient is on record as 21,500 M^−1cm^−1.

Consider `COc1c2c3c4c(c(NCc5cccc[n+]5C)c(=O)c5c(O)cc(OC)c(c6c(OC)cc(NCc7cccc[n+]7C)c(c1=O)c63)c54)C=C(C)C2C(C)=O` (stereo not drawn) [HB-38d-N^+], for which the singlet oxygen yield in data set [1] was found to be 20%. Besides, in data set [2], the maximum absorption wavelength turned out to be 626 nm and the molar extinction coefficient was 21,500 M^−1cm^−1.

In data set [1], `COCCOCCOCCOCCOCCOCCOC(=O)C1CCC(Nc2c3c4c5c(c(OC)c(=O)c6c(NC7CCC(C(=O)OCCOCCOCCOCCOCCOCCOC)CC7)cc(OC)c(c7c(OC)cc(O)c(c2=O)c74)c65)C(C(C)=O)C(C)=C3)CC1` (stereo not drawn) [HB-14d-PEG6] showed a singlet oxygen yield of 32%. Further, in data set [2], the maximum absorption wavelength was determined as 630 nm and the molar extinction coefficient is on record as 31,500 M^−1cm^−1.

In turn, `COc1c(O)c2c(=O)cc(OC)c3c4c(OC)cc(=O)c5c(NC6(CO)CC6)c(NC6(CO)CC6)c6c(c(c1C(C(C)=O)C(C)=C6)c23)c54` (stereo not drawn) [HB-35a] came in with a singlet oxygen yield in data set [1] of 32%. Besides, in data set [2], the maximum absorption wavelength is listed as 621 nm and the molar extinction coefficient is recorded as 30,500 M^−1cm^−1.

The molecule `CCCNc1c2c3c4c(c(OC)c(=O)c5c(NCCC)cc(OC)c(c6c(OC)cc(O)c(c1=O)c63)c54)C(C(C)=O)C(C)=C2` (stereo not drawn) [HB-33d] gave a singlet oxygen yield in data set [1] of 32%. For the same molecule, in data set [2], the maximum absorption wavelength is recorded as 620 nm and the molar extinction coefficient was 32,500 M^−1cm^−1.

In data set [1], `COc1c(NCC(=O)O)c2c(=O)cc(OC)c3c4c(OC)cc(=O)c5c(O)c(NCC(=O)O)c6c(c(c1C(C(C)=O)C(C)=C6)c23)c54` (stereo not drawn) [HB-7b] displayed a singlet oxygen yield of 25%. Also, in data set [2], the maximum absorption wavelength worked out at 622 nm and the molar extinction coefficient is given as 28,000 M^−1cm^−1.

In turn, `COCCOCCOC(=O)C1CCCC1Nc1c(NC2CCCC2C(=O)OCCOCCOC)c2c(=O)cc(OC)c3c4c(OC)cc(=O)c5c(O)c(OC)c6c(c(c1C=C(C)C6C(C)=O)c23)c54` (stereo not drawn) [HB-21a-PEG1] came in with a singlet oxygen yield in data set [1] of 30%. In addition, in data set [2], the maximum absorption wavelength came out at 624 nm and the molar extinction coefficient was 31,500 M^−1cm^−1.

In data set [1], `COc1c(NCCCC(=O)OCCCC[N+](C)(C)C)c2c(=O)cc(OC)c3c4c(OC)cc(=O)c5c(O)c(NCCCC(=O)OCCCC[N+](C)(C)C)c6c(c(c1CC(C)=C6)c23)c54` [HC-8b-C4-N^+] displayed a singlet oxygen yield of 32%. In data set [2], the maximum absorption wavelength was 625 nm and the molar extinction coefficient is recorded as 31,000 M^−1cm^−1.

As to `COc1c2c3c4c(c(NCC(=O)O)c(=O)c5c(NCCCC(=O)O)cc(OC)c(c6c(OC)cc(O)c(c1=O)c63)c54)C=C(C)C2C(C)=O` (stereo not drawn) [HB-43c], the singlet oxygen yield in data set [1] is on record as 30%. Moreover, in data set [2], the maximum absorption wavelength came to 626 nm and the molar extinction coefficient is recorded as 26,500 M^−1cm^−1.

Consider `COCCOCCOCCOCCOCCOCCOCCC(=O)OCC1(Nc2c3c4c5c(c(OC)c(=O)c6c(O)cc(OC)c(c7c(OC)cc(NC8(COC(=O)CCOCCOCCOCCOCCOCCOCCOC)CC8)c(c2=O)c74)c65)C(C(C)=O)C(C)=C3)CC1` (stereo not drawn) [HB-35c-PEG6], for which the singlet oxygen yield in data set [1] stood at 38%. Moreover, in data set [2], the maximum absorption wavelength worked out at 630 nm and the molar extinction coefficient is on record as 33,500 M^−1cm^−1.

As to `COCCOCCNC(=O)C1CCC(CNc2c(NCC3CCC(C(=O)NCCOCCOC)CC3)c3c(=O)cc(OC)c4c5c(OC)cc(=O)c6c(O)c(OC)c7c(c(c2C=C(C)C7)c34)c65)CC1` (stereo not drawn) [HC-13a-NH-PEG1], the singlet oxygen yield in data set [1] is listed as 32%. Also, in data set [2], the maximum absorption wavelength worked out at 624 nm and the molar extinction coefficient is 30,000 M^−1cm^−1.

Turning to `COCCOCCOCCOCCOCCOCCOCCN1CCC(CNc2c(O)c3c(=O)cc(OC)c4c5c(OC)cc(=O)c6c(NCC7CCN(CCOCCOCCOCCOCCOCCOCCOC)CC7)c(OC)c7c(c(c2C=C(C)C7C(C)=O)c34)c65)CC1` (stereo not drawn) [HB-32b-PEG6], the singlet oxygen yield in data set [1] was 38%. In data set [2], the maximum absorption wavelength is 622 nm and the molar extinction coefficient was 31,000 M^−1cm^−1.

In data set [1], `COCCOCCOCCOCCOCCOCCOC(=O)C1CCCCC1Nc1c(O)c2c(=O)cc(OC)c3c4c(OC)cc(=O)c5c(NC6CCCCC6C(=O)OCCOCCOCCOCCOCCOCCOC)c(OC)c6c(c(c1C=C(C)C6C(C)=O)c23)c54` (stereo not drawn) [HB-16b-PEG6] registered a singlet oxygen yield of 32%. Moreover, in data set [2], the maximum absorption wavelength came to 624 nm and the molar extinction coefficient is on record as 30,500 M^−1cm^−1.

Turning to `COc1c(NCCOC(=O)N2CC(=O)NC(=O)C2)c2c(=O)cc(OC)c3c4c(OC)cc(=O)c5c(O)c(NCCOC(=O)N6CC(=O)NC(=O)C6)c6c(c(c1C(C(C)=O)C(C)=C6)c23)c54` (stereo not drawn) [HB-40b], the singlet oxygen yield in data set [1] turned out to be 34%. Also, in data set [2], the maximum absorption wavelength worked out at 624 nm and the molar extinction coefficient is recorded as 31,500 M^−1cm^−1.

In data set [1], `COCCOCCOCCOCCOCCOCCOC(=O)C1CCCC(Nc2c(O)c3c(=O)cc(OC)c4c5c(OC)cc(=O)c6c(NC7CCCC(C(=O)OCCOCCOCCOCCOCCOCCOC)C7)c(OC)c7c(c(c2C=C(C)C7C(C)=O)c34)c65)C1` (stereo not drawn) [HB-15b-PEG6] came in with a singlet oxygen yield of 34%. In data set [2], the maximum absorption wavelength stood at 624 nm and the molar extinction coefficient is 30,000 M^−1cm^−1.

On to `COc1c(NCC2CCC(C(=O)NCCCCS(=O)(=O)O)CC2)c2c(=O)cc(OC)c3c4c(OC)cc(=O)c5c(O)c(NCC6CCC(C(=O)NCCCCS(=O)(=O)O)CC6)c6c(c(c1CC(C)=C6)c23)c54` (stereo not drawn) [HC-13b-C4-SO3H], for which the singlet oxygen yield in data set [1] was 32%. Further, in data set [2], the maximum absorption wavelength was found to be 622 nm and the molar extinction coefficient was 30,000 M^−1cm^−1.

`COc1c2c3c4c(c(NC5CCCCC5C(=O)O)c(=O)c5c(O)cc(OC)c(c6c(OC)cc(NC7CCCCC7C(=O)O)c(c1=O)c63)c54)C=C(C)C2C(C)=O` (stereo not drawn) [HB-16d] showed a singlet oxygen yield in data set [1] of 26%. In data set [2], the maximum absorption wavelength was determined as 625 nm and the molar extinction coefficient is given as 26,500 M^−1cm^−1.

`COc1c(NCc2cccc[n+]2C)c2c(=O)cc(OC)c3c4c(OC)cc(=O)c5c(O)c(NCc6cccc[n+]6C)c6c(c(c1C(C(C)=O)C(C)=C6)c23)c54` (stereo not drawn) [HB-38b-N^+]: the singlet oxygen yield in data set [1] is 20%. Besides, in data set [2], the maximum absorption wavelength is listed as 620 nm and the molar extinction coefficient is 21,000 M^−1cm^−1.

For `CCNNc1c(NNCC)c2c(=O)cc(OC)c3c4c(OC)cc(=O)c5c(O)c(OC)c6c(c(c1C=C(C)C6C(C)=O)c23)c54` (stereo not drawn) [HB-36a], in data set [1], the singlet oxygen yield came to 32%. Also, in data set [2], the maximum absorption wavelength is reported as 621 nm and the molar extinction coefficient was 30,500 M^−1cm^−1.

As for `COc1c2c3c4c(c(NCc5cccc[n+]5CCCC(=O)O)c(=O)c5c(NCc6cccc[n+]6CCCC(=O)O)cc(OC)c(c6c(OC)cc(O)c(c1=O)c63)c54)C=C(C)C2C(C)=O` (stereo not drawn) [HB-38c-N—COOH], the singlet oxygen yield in data set [1] is 21%. Besides, in data set [2], the maximum absorption wavelength is 622 nm and the molar extinction coefficient is on record as 21,500 M^−1cm^−1.

`COc1c(NCCCC(=O)NCCCCS(=O)(=O)O)c2c(=O)cc(OC)c3c4c(OC)cc(=O)c5c(O)c(NCCCC(=O)NCCCCS(=O)(=O)O)c6c(c(c1CC(C)=C6)c23)c54` [HC-8b-NH—C4-SO3H]: in data set [1], the singlet oxygen yield stood at 33%. Moreover, in data set [2], the maximum absorption wavelength amounted to 624 nm and the molar extinction coefficient is listed as 31,500 M^−1cm^−1.

In the case of `COCCOCCOCCOCCOCCNC(=O)C1CCC(CNc2c(O)c3c(=O)cc(OC)c4c5c(OC)cc(=O)c6c(NCC7CCC(C(=O)NCCOCCOCCOCCOCCOC)CC7)c(OC)c7c(c(c2C=C(C)C7C(C)=O)c34)c65)CC1` (stereo not drawn) [HB-13b-NH-PEG4], in data set [1], the singlet oxygen yield stood at 34%. Further, in data set [2], the maximum absorption wavelength was 622 nm and the molar extinction coefficient is listed as 31,000 M^−1cm^−1.

`COc1c2c3c4c(c(NCCNCCOCCOCCOCCOCCO)c(=O)c5c(NCCNCCOCCOCCOCCOCCO)c(Br)c(OC)c(c6c(OC)cc(O)c(c1=O)c63)c54)C=C(C)C2C(C)=O` (stereo not drawn) [HB-5c-Br-PEG4] gave a singlet oxygen yield in data set [1] of 36%. In data set [2], the maximum absorption wavelength is recorded as 630 nm and the molar extinction coefficient is 31,500 M^−1cm^−1.

In the case of `COCCOCCOCCOCCOCCOCCOC(=O)CCCNc1c(O)c2c(=O)cc(OC)c3c4c(OC)cc(=O)c5c(NCCCC(=O)OCCOCCOCCOCCOCCOCCOC)c(OC)c6c(c(c1C=C(C)C6C(C)=O)c23)c54` (stereo not drawn) [HB-8b-PEG6], the singlet oxygen yield in data set [1] is 30%. Further, in data set [2], the maximum absorption wavelength is listed as 622 nm and the molar extinction coefficient is 30,000 M^−1cm^−1.

For the molecule `COc1c(NCCCC(=O)O)c2c(=O)cc(OC)c3c4c(OC)cc(=O)c5c(O)c(NCC(=O)O)c6c(c(c1C(C(C)=O)C(C)=C6)c23)c54` (stereo not drawn) [HB-43b], the singlet oxygen yield in data set [1] turned out to be 25%. Moreover, in data set [2], the maximum absorption wavelength turned out to be 618 nm and the molar extinction coefficient is on record as 26,000 M^−1cm^−1.

`COc1c(NCc2cccc[n+]2CCCC(=O)O)c2c(=O)cc(OC)c3c4c(OC)cc(=O)c5c(O)c(NCc6cccc[n+]6CCCC(=O)O)c6c(c(c1C(C(C)=O)C(C)=C6)c23)c54` (stereo not drawn) [HB-38b-N—COOH]: the singlet oxygen yield in data set [1] was 18%. In data set [2], the maximum absorption wavelength is 620 nm and the molar extinction coefficient is given as 21,500 M^−1cm^−1.

With `COc1c(NCCCCS(=O)(=O)O)c2c(=O)cc(OC)c3c4c(OC)cc(=O)c5c(O)c(NCCCCS(=O)(=O)O)c6c(c(c1C(C(C)=O)C(C)=C6)c23)c54` (stereo not drawn) [HB-11b-C4-SO3H], in data set [1], the singlet oxygen yield is on record as 34%. Further, in data set [2], the maximum absorption wavelength is 620 nm and the molar extinction coefficient is recorded as 30,500 M^−1cm^−1.
